Source: ChEMBL document CHEMBL1201862, “PubChem BioAssay data set” (2004)
The source made the active and inactive calls.

Experiments:
[1] = Vero E6 cell cytotoxicity, dose response, cytotoxicity control for non-replicating M. tuberculosis project, secondary assay (AID 492998); assay type: functional, VeroE6; conditions: Vero C1008
cells = assay type: functional
[2] = THP-1 cell cytotoxicity, dose response, cytotoxicity control for non-replicating M. tuberculosis project (AID 489025); assay type: functional
[3] = target: DNA dC->dU-editing enzyme APOBEC-3A (Homo sapiens, UniProt P31941); assay: Dose Response confirmation of small molecule APOBEC3A DNA Deaminase Inhibitors via a fluorescence-based single-stranded DNA deaminase assay. [Related pubchem assays (depositor defined):AID493011, AID493024]; assay type: functional
[4] = target: DNA dC->dU-editing enzyme APOBEC-3G (Homo sapiens, UniProt Q9HC16); assay type: functional;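 note: Dose-response counterscreen measuring inhibition of APOBEC3G DNA deaminase activity, run while confirming APOBEC3A inhibitors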
[5] = target: T1, Short transient receptor potential channel 4 (Mus musculus, UniProt Q9QUQ5); assay: calcium entry via TRPC4 opening agents – cell-based, HEK293 TRPC4/mu-opioid, Fluo-4 calcium, dose response (AID 434937); assay type: functional
T1 sequence (Q9QUQ5 whole entry): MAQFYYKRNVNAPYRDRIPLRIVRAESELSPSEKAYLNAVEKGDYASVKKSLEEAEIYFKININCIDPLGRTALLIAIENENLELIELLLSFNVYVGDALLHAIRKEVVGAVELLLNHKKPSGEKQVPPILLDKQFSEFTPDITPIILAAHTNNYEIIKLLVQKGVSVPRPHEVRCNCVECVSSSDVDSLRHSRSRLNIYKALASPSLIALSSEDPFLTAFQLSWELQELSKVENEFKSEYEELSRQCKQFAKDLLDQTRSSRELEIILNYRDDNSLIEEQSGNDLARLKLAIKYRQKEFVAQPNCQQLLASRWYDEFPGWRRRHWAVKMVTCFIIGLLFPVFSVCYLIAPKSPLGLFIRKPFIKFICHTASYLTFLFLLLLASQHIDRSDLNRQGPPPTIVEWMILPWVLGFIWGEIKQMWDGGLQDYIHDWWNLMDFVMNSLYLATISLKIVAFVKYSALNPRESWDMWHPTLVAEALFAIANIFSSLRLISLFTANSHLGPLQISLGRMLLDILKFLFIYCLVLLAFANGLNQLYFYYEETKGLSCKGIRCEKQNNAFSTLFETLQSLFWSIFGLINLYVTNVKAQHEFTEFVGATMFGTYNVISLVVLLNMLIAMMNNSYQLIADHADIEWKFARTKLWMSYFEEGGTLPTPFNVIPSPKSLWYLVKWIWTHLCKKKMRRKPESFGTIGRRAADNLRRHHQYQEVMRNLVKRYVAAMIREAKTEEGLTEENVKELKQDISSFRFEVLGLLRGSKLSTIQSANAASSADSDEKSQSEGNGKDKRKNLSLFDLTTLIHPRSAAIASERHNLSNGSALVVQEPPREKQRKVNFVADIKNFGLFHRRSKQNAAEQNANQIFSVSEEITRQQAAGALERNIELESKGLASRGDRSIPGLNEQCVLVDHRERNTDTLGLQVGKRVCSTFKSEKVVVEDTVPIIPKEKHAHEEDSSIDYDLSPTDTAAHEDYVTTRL

[6] = target: T2, Corticotropin-releasing factor receptor 2/Corticotropin-releasing factor-binding protein (Homo sapiens, UniProt P24387+Q13324); assay: activators of CRF receptor 2 with binding protein – uHTS hits, confirmation (AID 602473); assay type: functional; conditions: read-out: EC50_Mean
T2 sequence (Q13324 whole entry): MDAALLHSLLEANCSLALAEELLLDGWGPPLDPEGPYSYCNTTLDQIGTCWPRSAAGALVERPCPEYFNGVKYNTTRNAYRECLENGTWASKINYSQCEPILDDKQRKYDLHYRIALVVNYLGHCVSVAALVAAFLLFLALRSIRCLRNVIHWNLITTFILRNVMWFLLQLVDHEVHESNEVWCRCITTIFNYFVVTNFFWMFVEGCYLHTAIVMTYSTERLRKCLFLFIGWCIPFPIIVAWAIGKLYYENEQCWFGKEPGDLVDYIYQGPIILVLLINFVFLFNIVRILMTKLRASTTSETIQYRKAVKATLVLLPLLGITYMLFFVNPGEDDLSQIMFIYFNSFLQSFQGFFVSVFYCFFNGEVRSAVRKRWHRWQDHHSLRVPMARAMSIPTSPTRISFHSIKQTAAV
T2 sequence (P24387 whole entry): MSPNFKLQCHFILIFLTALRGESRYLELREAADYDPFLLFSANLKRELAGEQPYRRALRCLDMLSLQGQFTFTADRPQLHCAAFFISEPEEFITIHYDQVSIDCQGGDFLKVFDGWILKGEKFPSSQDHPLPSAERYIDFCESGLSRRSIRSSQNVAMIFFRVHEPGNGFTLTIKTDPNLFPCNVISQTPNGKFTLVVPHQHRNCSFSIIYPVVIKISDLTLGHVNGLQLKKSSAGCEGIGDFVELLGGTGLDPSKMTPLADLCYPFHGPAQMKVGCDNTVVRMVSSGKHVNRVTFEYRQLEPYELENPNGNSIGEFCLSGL

HEK293 [7] = assay: inhibition of NOD1-driven NF-kB reporter – cell-based, luminescence, uHTS, primary screen (AID 1578); assay type: functional; conditions: Homo sapiens
[8] = NIH-3T3 fibroblast cytotoxicity, dose response, cytotoxicity control, cell-based, fluorescence, Alamar Blue, secondary assay (AID 2327); assay type: functional;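 note: NIH-3T3 mouse fibroblasts cultured with fluconazole at 8 µg/mL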
HEK293 [9] = assay: cells; assay type: functional, cell-based; conditions: Homo sapiens
[10] = target: Nucleotide-binding oligomerization domain-containing protein 2 (Homo sapiens, UniProt Q9HC29); assay: inhibition of NOD2-driven NF-kB reporter – cell-based, luminescence, uHTS, HEK293 (AID 1566); assay type: functional
[11] = fluconazole-exposed Candida albicans growth modulators – fluorescence, retest, confirmation (AID 2467); assay type: functional, cell-based
HEK293 [12] = assay: cells; assay type: functional, cell-based; conditions: Homo sapiens; remark: listed apart in the source
HEK293 [13] = assay: NOD2 signaling inhibitors in MDP-stimulated cells, cell-based, uHTS, luminescence (AID 2001); assay type: functional; conditions: Homo sapiens
HEK293 [14] = assay: cells; assay type: functional, cell-based; conditions: Homo sapiens; remark: listed apart in the source
Cytochrome P450 3A4 = Cytochrome P450 3A4 (Homo sapiens, UniProt P08684);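 note: CYP3A4 tested as one member of a cytochrome P450 panel screen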
Aminopeptidase N = target: T3, Aminopeptidase N (Plasmodium falciparum FcB1/Columbia, UniProt O96935); assay: malaria alanyl aminopeptidase activity blockers – biochemical, fluorogenic H-Leu-NHMec substrate, 1536-well (AID 1445); design: species or system Plasmodium falciparum 3D7, 3D7
T3 sequence (O96935 whole entry): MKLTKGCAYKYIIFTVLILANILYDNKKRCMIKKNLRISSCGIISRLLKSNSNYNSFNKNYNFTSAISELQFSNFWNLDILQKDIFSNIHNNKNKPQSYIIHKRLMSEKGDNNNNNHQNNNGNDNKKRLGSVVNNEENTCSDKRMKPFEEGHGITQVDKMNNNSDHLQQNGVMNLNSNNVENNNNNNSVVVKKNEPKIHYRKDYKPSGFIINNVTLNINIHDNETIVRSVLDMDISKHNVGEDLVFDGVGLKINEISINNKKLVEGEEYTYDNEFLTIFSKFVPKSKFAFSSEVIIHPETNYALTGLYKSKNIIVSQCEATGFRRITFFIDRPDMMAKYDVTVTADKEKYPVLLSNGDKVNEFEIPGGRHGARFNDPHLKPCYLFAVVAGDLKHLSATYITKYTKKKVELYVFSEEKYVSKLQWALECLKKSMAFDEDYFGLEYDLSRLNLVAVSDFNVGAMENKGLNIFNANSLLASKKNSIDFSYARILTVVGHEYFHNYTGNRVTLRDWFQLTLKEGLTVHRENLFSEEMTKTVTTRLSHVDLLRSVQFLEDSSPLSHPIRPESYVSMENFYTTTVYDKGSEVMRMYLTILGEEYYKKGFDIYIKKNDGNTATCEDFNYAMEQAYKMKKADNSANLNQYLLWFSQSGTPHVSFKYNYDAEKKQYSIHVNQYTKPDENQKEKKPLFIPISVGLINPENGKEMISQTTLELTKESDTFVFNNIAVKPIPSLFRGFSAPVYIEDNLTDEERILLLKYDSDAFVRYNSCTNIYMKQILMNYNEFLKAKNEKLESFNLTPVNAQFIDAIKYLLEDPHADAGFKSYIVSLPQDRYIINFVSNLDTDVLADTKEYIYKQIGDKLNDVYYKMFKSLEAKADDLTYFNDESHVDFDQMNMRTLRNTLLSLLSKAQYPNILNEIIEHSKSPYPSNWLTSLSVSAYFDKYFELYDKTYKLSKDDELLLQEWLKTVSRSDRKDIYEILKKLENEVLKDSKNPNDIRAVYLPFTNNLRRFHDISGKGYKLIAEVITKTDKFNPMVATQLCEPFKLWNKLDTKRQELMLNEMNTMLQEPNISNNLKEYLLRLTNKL

Leucine aminopeptidase = target: T4, Leucine aminopeptidase (Plasmodium falciparum 3D7, UniProt Q8IL11); assay: P. falciparum M17LAP inhibitors, primary screen, biochemical, fluorogenic H-Leu-NHMec substrate, 1536-well (AID 1619); assay type: functional
T4 sequence (Q8IL11 whole entry): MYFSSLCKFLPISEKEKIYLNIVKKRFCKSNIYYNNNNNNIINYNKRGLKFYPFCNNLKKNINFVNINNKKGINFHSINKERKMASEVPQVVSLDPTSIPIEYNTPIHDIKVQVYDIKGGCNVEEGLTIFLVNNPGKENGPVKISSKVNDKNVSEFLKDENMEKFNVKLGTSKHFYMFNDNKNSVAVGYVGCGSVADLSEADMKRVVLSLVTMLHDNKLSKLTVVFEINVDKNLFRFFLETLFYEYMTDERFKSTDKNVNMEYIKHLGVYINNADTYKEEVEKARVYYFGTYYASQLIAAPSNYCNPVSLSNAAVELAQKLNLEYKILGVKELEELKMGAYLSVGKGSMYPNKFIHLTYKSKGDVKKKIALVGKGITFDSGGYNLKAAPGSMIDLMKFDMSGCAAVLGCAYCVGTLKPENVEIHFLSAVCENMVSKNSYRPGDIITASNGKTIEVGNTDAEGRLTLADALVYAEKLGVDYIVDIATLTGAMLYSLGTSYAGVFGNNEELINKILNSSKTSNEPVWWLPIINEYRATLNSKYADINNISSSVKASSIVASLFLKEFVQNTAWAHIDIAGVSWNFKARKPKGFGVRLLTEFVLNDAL

Sequence of DNA dC->dU-editing enzyme APOBEC-3A (P31941 whole entry): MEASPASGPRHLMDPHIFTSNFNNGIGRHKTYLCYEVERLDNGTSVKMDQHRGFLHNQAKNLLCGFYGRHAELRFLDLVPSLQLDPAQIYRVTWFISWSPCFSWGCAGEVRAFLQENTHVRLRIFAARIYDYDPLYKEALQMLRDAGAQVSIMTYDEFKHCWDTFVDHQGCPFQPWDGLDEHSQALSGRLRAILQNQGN
Sequence of DNA dC->dU-editing enzyme APOBEC-3G (Q9HC16 whole entry): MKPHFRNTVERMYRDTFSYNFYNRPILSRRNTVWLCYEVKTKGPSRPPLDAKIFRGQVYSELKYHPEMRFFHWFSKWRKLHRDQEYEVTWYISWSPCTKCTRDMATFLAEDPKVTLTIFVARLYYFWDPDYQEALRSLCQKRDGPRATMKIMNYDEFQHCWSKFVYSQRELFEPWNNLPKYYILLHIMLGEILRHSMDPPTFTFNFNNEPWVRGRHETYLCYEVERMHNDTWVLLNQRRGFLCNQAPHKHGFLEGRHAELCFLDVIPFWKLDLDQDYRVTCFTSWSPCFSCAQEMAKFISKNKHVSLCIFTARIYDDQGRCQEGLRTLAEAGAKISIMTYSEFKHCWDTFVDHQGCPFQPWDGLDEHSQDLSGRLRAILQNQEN
Sequence of Cytochrome P450 3A4 (P08684 whole entry): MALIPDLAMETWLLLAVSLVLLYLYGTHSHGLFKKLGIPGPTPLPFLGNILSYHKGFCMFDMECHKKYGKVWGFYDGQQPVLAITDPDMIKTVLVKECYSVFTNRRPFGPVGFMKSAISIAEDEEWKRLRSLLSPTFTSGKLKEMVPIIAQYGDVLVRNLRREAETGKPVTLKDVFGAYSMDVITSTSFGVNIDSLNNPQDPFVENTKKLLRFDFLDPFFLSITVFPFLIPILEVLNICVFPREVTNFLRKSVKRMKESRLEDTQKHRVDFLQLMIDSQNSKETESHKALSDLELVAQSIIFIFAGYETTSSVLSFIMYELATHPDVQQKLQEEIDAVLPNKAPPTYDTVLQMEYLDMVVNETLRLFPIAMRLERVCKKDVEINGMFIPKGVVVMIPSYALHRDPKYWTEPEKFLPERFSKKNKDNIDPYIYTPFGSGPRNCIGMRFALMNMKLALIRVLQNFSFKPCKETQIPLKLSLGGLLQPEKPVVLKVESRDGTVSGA
Sequence of Nucleotide-binding oligomerization domain-containing protein 2 (Q9HC29 whole entry, the tested form may be a part): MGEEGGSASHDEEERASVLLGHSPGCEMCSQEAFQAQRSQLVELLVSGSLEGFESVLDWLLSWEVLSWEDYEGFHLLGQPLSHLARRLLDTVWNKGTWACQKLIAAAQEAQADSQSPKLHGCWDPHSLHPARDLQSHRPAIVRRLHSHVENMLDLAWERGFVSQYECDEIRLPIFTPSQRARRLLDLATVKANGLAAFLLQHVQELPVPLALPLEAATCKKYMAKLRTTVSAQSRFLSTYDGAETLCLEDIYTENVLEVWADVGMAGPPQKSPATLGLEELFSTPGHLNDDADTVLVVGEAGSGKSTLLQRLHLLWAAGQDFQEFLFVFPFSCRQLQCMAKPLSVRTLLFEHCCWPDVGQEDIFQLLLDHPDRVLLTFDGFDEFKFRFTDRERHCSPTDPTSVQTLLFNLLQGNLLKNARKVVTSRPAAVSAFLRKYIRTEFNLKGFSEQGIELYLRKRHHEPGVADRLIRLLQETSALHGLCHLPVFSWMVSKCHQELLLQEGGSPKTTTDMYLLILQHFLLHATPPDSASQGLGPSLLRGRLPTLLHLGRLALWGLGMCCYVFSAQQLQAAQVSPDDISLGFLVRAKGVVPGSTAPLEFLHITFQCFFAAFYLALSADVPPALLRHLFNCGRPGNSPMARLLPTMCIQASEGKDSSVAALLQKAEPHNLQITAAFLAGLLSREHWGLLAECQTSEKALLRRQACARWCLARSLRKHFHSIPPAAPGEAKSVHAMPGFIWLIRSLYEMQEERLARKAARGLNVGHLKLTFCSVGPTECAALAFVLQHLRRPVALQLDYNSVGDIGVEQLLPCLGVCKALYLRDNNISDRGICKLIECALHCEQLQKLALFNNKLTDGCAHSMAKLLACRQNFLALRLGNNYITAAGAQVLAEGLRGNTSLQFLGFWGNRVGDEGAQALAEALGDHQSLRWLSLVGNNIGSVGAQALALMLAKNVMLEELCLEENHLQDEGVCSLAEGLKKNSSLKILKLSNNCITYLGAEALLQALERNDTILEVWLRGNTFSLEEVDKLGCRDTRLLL

In the case of `COc1cc(CNCCc2ccccc2)cc(Br)c1OCC(=O)Nc1ccccc1C`, the CC50 [1] is reported as 19.4 µM (active), the IC50 (cells) is reported as 21.2 µM (active) and the CC50 [2] is reported as 23.1 µM (active).
For `CN1CCN(S(=O)(=O)c2cccc(C(=O)N3CCN(c4ccccc4F)CC3)c2)CC1`, the IC50 [3] was 10.1 µM (active) and the IC50 [4] was 19.2 µM (active).
In the case of `CC1CN(C(=O)c2ccc(NS(=O)(=O)c3ccc(C(C)(C)C)cc3)cc2)CC(C)O1` (centres undefined), the EC50 [5] is reported as 5.96 µM (active) and the EC50 [6] is reported as 15.7 µM (active).
With `CC1=CC(C)(C)[N+](C)(C)c2ccccc21` the IC50 [3] was 2.6 µM (active) and the IC50 [4] was 2.98 µM (active).
For `COc1ccc(-c2nn(-c3ccccc3C)cc2CNC(C)c2cn(C)nc2C)cc1F` (centres undefined), the EC50 [5] was 1.68 µM (active).
For `Cc1nonc1C(=O)N/N=C/c1ccc([N+](=O)[O-])o1`, the EC50 (HEK293 [7]) was 9.04 µM (active), the EC50 [8] was 30.2 µM (active) and the IC50 (HEK293 [9]) was > 20 µM (inactive). For the same molecule, the EC50 [10] was 10.9 µM (active), the EC50 [11] was 1.82 µM (active) and the IC50 (HEK293 [12]) was > 20 µM (inactive). The IC50 (HEK293 [13]) was > 20 µM (inactive), the IC50 (HEK293 [14]) was > 20 µM (inactive) and the IC50 (cells) was 8.02 µM (active).
In the case of `NC(N)=Nc1nc2ccc([N+](=O)[O-])cc2[nH]1`, the AC50 (Cytochrome P450 3A4) is reported as “inconclusive”.
With `CCOc1cc(/C=N/NC(=O)c2cccs2)cc([N+](=O)[O-])c1O` the IC50 (Aminopeptidase N) was 103 µM (active).
For `COc1ccc(/C=N/NC(=S)Nc2cccc(C(=O)O)c2)cc1`, the IC50 (Leucine aminopeptidase) was 19.6 µM (active).
In the case of `COc1ccc(/C=N/NC2=NC(=O)C(CC(=O)O)S2)cc1OCc1ccc(Cl)cc1` (centres undefined), the IC50 (Leucine aminopeptidase) is reported as 20.3 µM (active) and the IC50 (Aminopeptidase N) is reported as 66.7 µM (active).
